Where two headings read alike, the source gives them in different places.
What was measured:
[1] = tested on: MCF-7 cells; test: Light-induced and dark cytotoxicity, CCK-8 assay, MCF-7 cells; format: cell-based; conditions: 24 hours, mean ± SD
Description: FIGS. 3A-3K are graphs showing the dose response of compounds as described herein in MCF-7 cells. […] The cells were treated and allowed the incubate for 24 hours (labeled in the figures as the compound name followed by “DARK”) or were treated, incubated for 30 minutes, exposed to light for a designated time, and then incubated for 24 hours (labeled in the figures as the compound name followed by “EXPO”).
(§1) HeLa cells and MCF-7 cells were purchased from ATCC (Manassas, VA). HeLa cells were cultured in high glucose DMEM culture medium (Sigma-Aldrich; St. Louis, MO) with glutamine, without sodium pyruvate, and supplemented with 10% fetal bovine serum (FBS) and 1% penicillin and […]. MCF-7 cells were cultured in MEM culture medium (Sigma-Aldrich) supplemented with 10% FBS and 1% penicillin and […]. Cells were incubated in 37° C. incubator with 5% CO2. Under dim light, compounds were dissolved in DMSO to form 20 mM stock solution and serially diluted in 96-well plate with full culture medium to form the working solution with DMSO concentration being 0.5% in all wells. HeLa and MCF-7 cells were seeded in 96-well plate at a density of 10^5/100 μL/well and incubated overnight, and then the culture medium was replaced with 100 μL of the compound-loaded working solution. The dark treatment group was kept in the incubator for 24 hours. The exposure treatment group was allowed to incubate for 30 minutes, followed by exposure with blue light for the designated time (5 min for 0.45 J/cm^2). After exposure, cells were returned to the incubator and incubated for 24 hours. 10 μL CCK-8 solution (Dojindo, Japan) was added to the cells in each well and incubated for 2 hours. The optical density at 450 nm of each well was read with the Perkin-Elmer Vector 3 plate reader (USA). Cells treated with 0.5% DMSO were used as the vehicle control and 100 μL culture medium with 10 μL CCK-8 was used as the blank control. Cell viability was calculated as: […]
(§2) All tests were in triplicate, and the IC50 was calculated with non-linear regression of concentration and cell viability by Graphpad Prism.
Additional compounds as described herein were tested. […] Light-induced cytotoxicity was then evaluated. […] PS-107, a compound with the furan ring replaced by phenyl, was synthesized as the structural mimetic control. […] All compounds were also tested against MCF-7 breast cancer cell line, which gave a similar trend of activity (Table 4).

[2] = tested on: HeLa cells; test: Light-induced and dark cytotoxicity, CCK-8 assay, HeLa cells; format: cell-based; conditions: for IC50: 24 hours, mean ± SD; for light-induced (photo-induced) cytotoxicity (in words): with or without blue light irradiation
Description: as §1, §2
BW-PS-101 was incubated with cervical carcinoma HeLa cell line under darkness. After incubation for 30 min to facilitate internalization, cells were exposed to a low-power blue LED array (470 nm, 1.5 mW/cm^2, as described above) for 5 minutes (total irradiation energy 0.45 J/cm^2) and incubated for an additional 24 hours under darkness followed by cell viability determination with CCK-8 assay.

[3] = tested on: HeLa cells; test: as above; format: cell-based; conditions: light energy 1.8 J/cm^2
[4] = Quantum yield ϕΔ in MeOH; format: physicochemical
[5] = tested on: early endosomes; test: Fluorescence microscopy, endosome localization; format: cell-based; conditions: for accumulation / enrichment in endosomes: fluorescence microscopy / imaging studies
Description: FIG. 8 are fluorescence microscopy images of BW-PS-105 (first row), BW-PS-110 (second row), and BW-PS-120 (third row) localized in early endosomes.
The trimethoxy substituted analog BW-PS-105, which was fluorescent with an Ex/Em wavelength of 491 nm/574 nm, was incubated with HeLa cell at a concentration of 1 μM. […] Endosome enrichment of the photosensitizer led to the potency increase of about 5 folds. Targeting photosensitizers to the endosome efficiently induces cancer cell apoptosis by photodynamic therapy.

[6] = tested on: SARS-CoV-2; test: Inhibition of SARS-CoV-2 replication in infected Huh7 cells; format: cell-based; conditions: read-out: EC50, inhibition of viral replication against SARS-COV-2
Description: FIGS. 1A-1C are graphs showing the inhibition of SARS-CoV-2 replication in Huh-7 cells by BW-PS-108 (FIG. 1A), BW-PS-109 (FIG. 1B), and Compound 136 (FIG. 1C). The top line in FIGS. 1A and 1B represent cytotoxicity. Cell pellets from infected cells were collected at 48 hours after infection and viral RNA levels were measured by RT-PCR.
No solubility issues were encountered when studying their toxicity at 100 μM.
The potency levels of the compounds described herein compare favorably against remdesivir and molnupiravir. […] Further, the potency levels of the compounds described herein were also higher than Compound 136.

[7] = Homo sapiens, MCF7, light or radiation study, blue light, exposure light energy density 0.45 J/cm^2, read-out: MCF-7 cells Exposure IC50
[8] = Homo sapiens, MCF7, dark, read-out: MCF-7 cells Dark IC50
[9] = Homo sapiens, HeLa, light or radiation study, blue light, exposure light energy density 0.45 J/cm^2, read-out: Hela cells Exposure IC50
[10] = Homo sapiens, HeLa, dark, read-out: Hela cells Dark IC50
[11] = blue light, exposure light energy density 0.45 J/cm^2, read-out: MCF-7 cells Exposure IC50
[12] = dark, read-out: MCF-7 cells Dark IC50
[13] = viral RNA by RT-PCR 48 hours after infection
[14] = blue light, exposure light energy density 0.45 J/cm^2, read-out: Hela cells Exposure IC50
[15] = dark, read-out: Hela cells Dark IC50

## CCCN1C(=O)/C(=C/c2ccc(-c3ccccc3)o2)SC1=S [BW-PS-101, (Z)-5-((5-phenylfuran-2-yl)methylene)-3-propyl-2-thioxothiazolidin-4-one]
[1]; [7]
  IC50: 740 ± 140 nM
[1]; [8]
  IC50: > 100000 nM
[2]; HeLa, dark, up to 100 μM
  cytotoxicity of cells treated in the dark (in words): did not show any cytotoxicity
[2]; [9]
  IC50: 1380 ± 50 nM
[2]; [10]
  IC50: > 100000 nM
[3]
  IC50 in the HeLa cell at higher light energy: submicromolar range
[4]
  ϕΔ MeOH): 0.109

## CCCN1C(=O)/C(=C/c2ccc(-c3ccc(F)cc3)o2)SC1=S [BW-PS-102, (Z)-5-((5-(4-fluorophenyl)furan-2-yl)methylene)-3-propyl-2-thioxothiazolidin-4-one]
[1]; [7]
  IC50: 1260 ± 4 nM
[1]; [8]
  IC50: > 100000 nM
[2]; [9]
  IC50: 1480 ± 140 nM
[2]; [10]
  IC50: > 100000 nM
[2]
  light-induced (photo-induced) cytotoxicity (in words): comparable activity as BW-PS-101
[4]
  ϕΔ MeOH): 0.075

## CCCN1C(=O)/C(=C/c2ccc(-c3ccc(O)cc3)o2)SC1=S [BW-PS-103, (Z)-5-((5-(4-hydroxyphenyl)furan-2-yl)methylene)-3-propyl-2-thioxothiazolidin-4-one]
[1]; [7]
  IC50: 4250 ± 170 nM
[1]; [8]
  IC50: ~100000 nM
[2]; [9]
  IC50: 3580 ± 130 nM
[2]; [10]
  IC50: > 100000 nM
[4]
  ϕΔ MeOH): 0.007

## CCCN1C(=O)/C(=C/c2ccc(-c3ccc(OC)cc3)o2)SC1=S [BW-PS-104, (Z)-5-((5-(4-methoxyphenyl)furan-2-yl)methylene)-3-propyl-2-thioxothiazolidin-4-one]
[1]; [7]
  IC50: 2870 ± 920 nM
[1]; [8]
  IC50: > 100000 nM
[2]; [9]
  IC50: 2710 ± 230 nM
[2]; [10]
  IC50: > 100000 nM
[4]
  ϕΔ MeOH): 0.015

## CCCN1C(=O)/C(=C/c2ccc(-c3cc(OC)c(OC)c(OC)c3)o2)SC1=S [BW-PS-105, (Z)-3-propyl-2-thioxo-5-((5-(3,4,5-trimethoxyphenyl)furan-2-yl)methylene)thiazolidin-4-one]
[1]; [7]
  IC50: 2710 ± 780 nM
[1]; [8]
  IC50: > 100000 nM
[5]
  accumulation / enrichment in endosomes: accumulation
[2]; [9]
  IC50: 2130 ± 300 nM
[2]; [10]
  IC50: > 100000 nM
[4]
  ϕΔ MeOH): 0.028

## CCCN1C(=O)/C(=C/c2ccc(-c3ccc(C(F)(F)F)cc3)o2)SC1=S [BW-PS-106, (Z)-3-propyl-2-thioxo-5-((5-(4-(trifluoromethyl)phenyl)furan-2-yl)methylene)thiazolidin-4-one]
[1]; [7]
  IC50: 2580 ± 730 nM
[1]; [8]
  IC50: > 100000 nM
[2]; [9]
  IC50: 2960 ± 90 nM
[2]; [10]
  IC50: > 100000 nM
[4]
  ϕΔ MeOH): 0.182

## CCCN1C(=O)/C(=C/c2cccc(-c3ccc(F)cc3)c2)SC1=S [BW-PS-107, (Z)-5-((4′-fluoro-[1,1′-biphenyl]-3-yl)methylene)-3-propyl-2-thioxothiazolidin-4-one]
[1]; [7]
  IC50: > 100000 nM
[2]; [9]
  IC50: > 100000 nM
[2]
  light-induced (photo-induced) cytotoxicity (in words): did not show any photo-induced cytotoxicity

## O=C1C(=Cc2ccc(-c3ccccc3)o2)SC(=S)N1CCN1CCOCC1 [BW-PS-108]
[1]; [11]
  IC50: 1220 ± 10 nM
[1]; [12]
  IC50: > 100000 nM
[6]; [13]
  EC50: 280 nM
[2]; [14]
  IC50: 950 ± 20 nM
[2]; [15]
  IC50: > 100000 nM
[4]
  ϕΔ MeOH): 0.086

## O=C1C(=Cc2ccc(-c3ccc(C(F)(F)F)cc3)o2)SC(=S)N1CCN1CCOCC1 [BW-PS-109]
[1]; [11]
  IC50: 530 ± 90 nM
[1]; [12]
  IC50: > 100000 nM
[6]; [13]
  EC50: 190 nM
[2]; [14]
  IC50: 630 ± 70 nM
[2]; [15]
  IC50: > 100000 nM
[4]
  ϕΔ MeOH): 0.115

## COc1cc(-c2ccc(C=C3SC(=S)N(CCN4CCOCC4)C3=O)o2)cc(OC)c1OC [BW-PS-110]
[1]; [11]
  IC50: 1250 ± 170 nM
[1]; [12]
  IC50: > 100000 nM
[5]; fluorescence microscopy
  co-localization with the endosome marker CellularLight endosomes-GFP: good co-localization
[5]
  accumulation / enrichment in endosomes: accumulation
[2]; [14]
  IC50: 1740 ± 160 nM
[2]; [15]
  IC50: > 100000 nM

## N.N.[Cl][Pt][Cl] [Cisplatin, cisplatin, reference compound]
[1]; [11]
  IC50: 13300 ± 1450 nM
[1]; [12]
  IC50: 12500 ± 2860 nM
[2]; [14]
  IC50: 5950 ± 170 nM
[2]; [15]
  IC50: 7540 ± 450 nM

## CCC(CC)COC(=O)[C@H](C)N[P@](=O)(OC[C@H]1O[C@@](C#N)(c2ccc3c(N)ncnn23)[C@H](O)[C@@H]1O)Oc1ccccc1 [remdesivir, reference compound]
[6]; Severe acute respiratory syndrome coronavirus 2, Huh-7, viral RNA by RT-PCR 48 hours after infection
  EC50: 700 nM

From patent publication US20250011292A1, “NOVEL RHODANINE DERIVATIVES AND USES THEREOF” (priority 2021, published 2025)
